What all share (assay type): functional, organism-based
Test [1] deals with Escherichia coli. The test is described as follows: Antimicrobial activity against Escherichia coli ATCC 25922 by Etest.
Test [2] concerns Escherichia coli. The test is described as follows: Antimicrobial activity against drug-resistant Escherichia coli isolate 2 expressing beta-lactamase CTX-M-15 isolated from patient past medical history included multiple courses of compound treatment, multiple sclerosis, pulmonary embolism, seizure disorder, tracheostomy for respiratory failure, gastrostomy secondary to dysphagia, congestive heart failure, diabetes mellitus, and peripheral inserted central by Etest.

In test [3] the test system is Escherichia coli. The test is described as follows: Antimicrobial activity against drug-resistant Escherichia coli isolate 2 expressing beta-lactamase CTX-M-15 isolated from patient past medical history included multiple courses of compound treatment, multiple sclerosis, pulmonary embolism, seizure disorder, tracheostomy for respiratory failure, gastrostomy secondary to dysphagia, congestive heart failure, diabetes mellitus, and peripheral inserted central by microdilution method. Background: Dilution methods test growth across graded concentrations, often in twofold steps.

The subject of test [4] is Escherichia coli. The test is described as follows: Antimicrobial activity against Escherichia coli ATCC 25922 by broth microdilution method.
In test [5] the test system is Escherichia coli. The test is described as follows: Antimicrobial activity against drug-resistant Escherichia coli isolate 1 expressing beta-lactamase CTX-M-15 isolated from urine of patient with history of hypertension, hyperlipidemia by Etest.
For test [6], the system named is Escherichia coli. The test is described as follows: Antimicrobial activity against drug-resistant Escherichia coli isolate 1 expressing beta-lactamase CTX-M-15 isolated from urine of patient with history of hypertension, hyperlipidemia by broth microdilution method.

Data on two sequences can be found in ChEMBL document CHEMBL1687832, “Polymyxin-resistant clinical isolates of Escherichia coli” (Antimicrob Agents Chemother, 2011).

For COLISTIN, the MIC (commonly the least concentration at which growth counts as inhibited) in the test with Escherichia coli [1] was 1.5 µg/mL; with Escherichia coli [2], 16 µg/mL; in the test with Escherichia coli [3], 32 µg/mL; against Escherichia coli [4] it was 1 µg/mL; with Escherichia coli [5] it was 16 µg/mL; against Escherichia coli [6], 16 µg/mL. Moreover, the minimum bactericidal concentration (MBC) (commonly the smallest concentration meeting the test's criterion for killing) was found to be 32 µg/mL with Escherichia coli [3], 1 µg/mL against Escherichia coli [4] and 16 µg/mL against Escherichia coli [6].
For POLYMYXIN B, the MIC turned out to be 1 µg/mL against Escherichia coli [1]; 24 µg/mL against Escherichia coli [2]; 16 µg/mL in the test on Escherichia coli [3]; 0.5 µg/mL in the test with Escherichia coli [4]; 16 µg/mL with Escherichia coli [5]; 16 µg/mL with Escherichia coli [6]. In addition, the results for the MBC in the test on Escherichia coli [3], in the test with Escherichia coli [4] and against Escherichia coli [6] were 32 µg/mL, 0.5 µg/mL and 32 µg/mL, respectively.
